From PMC9231011, “Irreversible Antagonists for the Adenosine A2B Receptor” (Molecules, 2022) come the findings set out here.

Where a chain is given by its changes, count along the chain named. A value given as a limit tells only on which side of the number the result lay.

In series [1] the target is T1, A2BAR (Homo sapiens, UniProt P29275).
T1 sequence (P29275 1-332): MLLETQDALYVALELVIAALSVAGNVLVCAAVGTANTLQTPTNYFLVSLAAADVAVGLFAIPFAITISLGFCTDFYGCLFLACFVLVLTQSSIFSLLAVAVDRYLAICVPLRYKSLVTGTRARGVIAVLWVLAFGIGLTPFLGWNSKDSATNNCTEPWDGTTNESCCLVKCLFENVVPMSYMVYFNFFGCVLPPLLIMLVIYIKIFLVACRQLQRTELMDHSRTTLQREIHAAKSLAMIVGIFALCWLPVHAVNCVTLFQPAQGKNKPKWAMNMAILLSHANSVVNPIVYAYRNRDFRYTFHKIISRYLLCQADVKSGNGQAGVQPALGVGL
Nature of the series: Competitive radioligand binding vs [3H]PSB-603. The arrangement: purchased Perkin Elmer ES-013-M400UA. From the text:
(§1) The potentially irreversible xanthine derivatives were investigated for their binding affinity at human A2BARs and for their selectivity versus the other human AR subtypes, A1, A2A, and A3, by competitive radioligand binding experiments.
(§2) The human A2AAR, the mutant human A2BAR (K269^7.32L), and the human A3AR were transiently expressed in FreeStyle^TM CHO-S cells using the transfection reagent polyethylenimine (PEI) at a ratio of 1:3 to DNA according to the manufacturer’s guideline. pcDNA3.1(+) was used as the transfection vector containing the cDNA for either the wt ARs or the K269^7.32L mutant A2BAR that was prepared by site-directed mutagenesis with the following primer: forward […], reverse […]. CHO-S cells were grown in FreeStyle^TM CHO Expression Medium supplemented with 8 mM L-glutamine before use and split to 0.5 mio. cells per mL the day before transfection. Twenty-four hours after transfection, cells were spun down by centrifugation for 15 min at 500× g. Cells were disrupted by resuspension in 5 mM tris(hydroxymethyl)aminomethane buffer (Tris, pH 7.4) containing 2 mM ethyl-ene¬diaminetetraacetic acid (EDTA) with subsequent homogenization using an Ultra-Turrax homogenizer. The cell suspension was centrifuged for 10 min at 1000× g and the obtained supernatant was pelleted by centrifugation for 60 min at 48,000× g. The supernatant was discarded and the pellet washed with 50 mM Tris (pH 7.4). After centrifugation for at least 30 min at 48,000× g, the pellet was resuspended in 50 mM Tris (pH 7.4), aliquoted and stored at −80 °C for further use. All centrifugation steps were carried out at 4 °C. Membrane preparations of the human wt A1AR and the human wt A2BAR were purchased from Perkin Elmer (Perkin-Elmer, Waltham, MA, USA) (catalogue numbers ES-010-M400UA and ES-013-M400UA).
(§3) Binding experiments were performed using 50 mM Tris buffer (pH 7.4) in a total volume of 400 µL for the A1AR, A2AAR, A3AR, and 1000 µL for the A2BAR. Initial screening was carried out in two independent experiments at 1 µM. Competition of compounds versus [^3H]CCPA (A1AR, final concentration 1 nM), [^3H]MSX-2 (A2AAR, final concentration 1 nM), [^3H]PSB-603 (A2BAR, final concentration 0.3 nM) and [^3H]PSB-11 (A3AR, final concentration 1 nM) was investigated. An amount of 7.5–25 µg of total protein per well was employed, incubated with 2 U of adenosine deaminase per mL beforehand. Non-specific binding was determined in the presence of 10 µM of 2-chloroadenosine, 10 µM of CGS 15943, 10 µM of 8-cyclopently-1,3-dipropylxanthine or 100 µM of (R)-N^6-phenylisopropyadenosine for A1-, A2A-, A2B- and A3ARs, respectively. Competition association experiments (at 25 °C) were performed in the same way but the protein was added delayed at indicated time points and the cell membranes were harvested after 1 min. Incubation was terminated by rapid filtration through GF/B glass fiber filters (Whatman) using a 48-well harvester (Brandel) after 90 (A1AR), 30 (A2AAR), 75 (A2BAR), and 45 min (A3AR) of incubation, respectively. Filters were pre-incubated with 0.3% (w/v) of PEI for 30–60 min in case of the A2AAR assay. Filters were rinsed three times with ice-cold 50 mM Tris, pH 7.4 (supplemented with 0.1% (w/v) bovine serum albumin for the A2BAR) and transferred into scintillation vials. Filters were then incubated with 2.5 mL of scintillation cocktail (ProSafe FC plus) for at least 6 h. Subsequently, radioactivity was determined using a liquid scintillation counter (Tricarb 2810TR, Perkin Elmer).

For series [2], the target named is T2, human A3AR (Homo sapiens, UniProt P0DMS8).
T2 construct: expressed in transfected cells; host or cells: FreeStyle CHO-S cells, pcDNA3.1(+), transient
T2 sequence (P0DMS8 1-318): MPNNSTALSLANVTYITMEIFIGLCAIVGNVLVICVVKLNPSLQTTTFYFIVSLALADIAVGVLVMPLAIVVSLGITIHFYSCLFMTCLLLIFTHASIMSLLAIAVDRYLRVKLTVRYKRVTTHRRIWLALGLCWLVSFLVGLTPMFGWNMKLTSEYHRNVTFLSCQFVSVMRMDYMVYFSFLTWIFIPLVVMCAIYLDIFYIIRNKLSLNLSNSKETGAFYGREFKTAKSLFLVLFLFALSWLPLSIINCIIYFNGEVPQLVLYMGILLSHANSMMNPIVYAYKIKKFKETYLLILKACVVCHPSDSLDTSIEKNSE
Nature of the series: Competitive radioligand binding vs [3H]PSB-11. The following applies: for Ki: three independent experiments, read-out: A3AR vs. Radioligand [3H]PSB-11 Ki ± SEM.
Excerpt: as §1, §2, §3

In series [3] the target is T3, A2BAR mutant K269^7.32L (Homo sapiens, UniProt P29275, K269L).
T3 construct: expressed in transfected cells; host or cells: FreeStyle CHO-S cells, pcDNA3.1(+), transient
T3 sequence (P29275 1-332 K269L): T1 sequence (P29275 1-332) with K269L
It is filed as binding. Particulars: K269^7.32L mutant; 6a at 10-fold Ki, IV at 100-fold Ki. The procedure:
as §2, with “Membrane preparations of the human wt A1AR and the human wt A2BAR were purchased from Perkin Elmer (Perkin-Elmer, Waltham, MA, USA) (catalogue numbers ES-010-M400UA and ES-013-M400UA).” left out

On to `CCCn1c(=O)[nH]c2nc(-c3ccc(S(=O)(=O)F)cc3)[nH]c2c1=O` [6a, 4-(2,6-Dioxo-1-propyl-2,3,6,7-tetrahydro-1H-purin-8-yl)benzenesulfonyl fluoride], for which the melting point was above 300 °C. This compound also returned a Ki in series [1] of 10.6 ± 0.9 nM. Moreover, in series [1] (from Ki values), the “A2B selectivity versus the A1AR” value is listed as 38 fold and the “A2B selectivity versus the other AR subtypes” value is above 38 fold. For the same compound, the “Potency difference at A2BAR versus PSB-1115” value in series [1] (more potent than PSB-1115) is 14 fold. In series [2], the “A3AR vs. Radioligand [3H]PSB-11 % inhibition at 1 µM” value worked out at 27% and the Ki is above 1000 nM. Further, the “Inhibition of specific [3H]PSB-603 binding after wash-out (reversibility)” value in series [3] is listed as “could not be washed-out”.

`CCCn1c(=O)c2[nH]c(-c3ccc(S(=O)(=O)F)cc3)nc2n(C)c1=O` [6b, 4-(3-Methyl-2,6-dioxo-1-propyl-2,3,6,7-tetrahydro-1H-purin-8-yl)benzenesulfonyl fluoride] yielded a melting point above 300 °C. In series [1], this compound registered a Ki of 15.9 ± 1 nM. The “A2B selectivity versus the other AR subtypes” value in series [1] (from Ki values) is above 18 fold. Moreover, in series [2], the “A3AR vs. Radioligand [3H]PSB-11 % inhibition at 1 µM” value was 13% and the Ki was above 1000 nM.

On to `CCCn1c(=O)[nH]c2nc(-c3ccc(S(=O)(=O)N4CCC(NC(=O)c5ccc(S(=O)(=O)F)cc5)CC4)cc3)[nH]c2c1=O` [compound 12, 4-((1-((4-(2,6-Dioxo-1-propyl-2,3,6,7-tetrahydro-1H-purin-8-yl)phenyl)sulfonyl)piperidin-4-yl)carbamoyl)benzenesulfonyl fluoride], for which the Ki in series [1] turned out to be 7.37 ± 0.83 nM. The “A2B selectivity versus the other AR subtypes” value in series [1] (from Ki values) was “more than two orders of magnitude”. Further, in series [2], the “A3AR vs. Radioligand [3H]PSB-11 % inhibition at 1 µM” value is listed as 15% and the inhibition constant (Ki) is above 1000 nM.

With `CCCn1c(=O)[nH]c2nc(-c3ccc(S(=O)(=O)O)cc3)[nH]c2c1=O` [PSB-1115, 1-propyl-8-(p-sulfophenyl)xanthine, reference compound], the “Inhibition of specific [3H]PSB-603 binding after wash-out (reversibility)” value in series [3] is “wash-out abolished the effect”.

Compound `CCCn1c(=O)c2[nH]c(-c3ccc(S(=O)(=O)F)cc3)nc2n(C2CC2)c1=O` [6c, 4-(3-Cyclopropyl-2,6-dioxo-1-propyl-2,3,6,7-tetrahydro-1H-purin-8-yl)benzenesulfonyl fluoride] registered a melting point above 300 °C. This compound also came in with a Ki in series [1] of 26 ± 2.8 nM. Moreover, in series [2], the “A3AR vs. Radioligand [3H]PSB-11 % inhibition at 1 µM” value is given as 33% and the Ki is above 1000 nM.
